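In this assay, cells in 96-well plates receive the compound at five concentrations for 48 hours. Endpoints are linearly interpolated between the surrounding concentrations. At the GI50, growth is halved.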 Calls of active or inactive are those of the source. Cut-off read from the data, not from the text of the source: active = GI50 up to about 1.1 µM and inactive = higher.
Key:
Assay in all cases: inhibition of tumour cell growth, NCI panel, 48 h
OVCAR-4 = system: OVCAR-4
Malme-3M = system: Malme-3M
MDA-MB-231 = system: MDA-MB-231
Hs-578T = system: Hs-578T
ACHN = system: ACHN
HT-29 = system: HT-29
K562 = system: K562
SF-295 = system: SF-295
TK-10 = system: TK-10
NCI-H522 = system: NCI-H522
PC-3 = system: PC-3
LOX IMVI = system: LOX IMVI
NCI-H226 = system: NCI-H226
NCI/ADR-RES = system: NCI/ADR-RES
SF-268 = system: SF-268
NCI-H23 = system: NCI-H23
UACC-62 = system: UACC-62
A549 = system: A549
MDA-N = system: MDA-N
RPMI-8226 = system: RPMI-8226
HOP-62 = system: HOP-62
M14 = system: M14
KM12 = system: KM12
SNB-75 = system: SNB-75
HOP-92 = system: HOP-92
OVCAR-5 = system: OVCAR-5
SK-MEL-2 = system: SK-MEL-2
SNB-19 = system: SNB-19
MCF7 = system: MCF7
A498 = system: A498
COLO 205 = system: COLO 205
SF-539 = system: SF-539
HCT-116 = system: HCT-116
CCRF-CEM = system: CCRF-CEM
786-0 = system: 786-0
SK-OV-3 = system: SK-OV-3
NCI-H460 = system: NCI-H460
HL-60 = system: HL-60
SK-MEL-28 = system: SK-MEL-28
OVCAR-8 = system: OVCAR-8
MDA-MB-435 = system: MDA-MB-435
EKVX = system: EKVX
DU-145 = system: DU-145
RXF 393 = system: RXF 393
UO-31 = system: UO-31
CAKI-1 = system: CAKI-1
SK-MEL-5 = system: SK-MEL-5
OVCAR-3 = system: OVCAR-3
UACC-257 = system: UACC-257
SW-620 = system: SW-620
IGROV-1 = system: IGROV-1
U-251 = system: U-251
HCT-15 = system: HCT-15
SR = system: SR
MOLT-4 = system: MOLT-4
SN12C = system: SN12C
HCC 2998 = system: HCC 2998

Measured: GI50

O=S(=O)(O)c1ccc2c(/N=N/c3ccccc3)c(O)ccc2c1
inactive: OVCAR-4 > 100 µM | Malme-3M > 100 µM | MDA-MB-231 > 100 µM | Hs-578T > 100 µM | ACHN > 100 µM | HT-29 > 100 µM | K562 > 100 µM | SF-295 > 100 µM | TK-10 > 100 µM | NCI-H522 > 100 µM | PC-3 > 100 µM | LOX IMVI > 100 µM | NCI-H226 > 100 µM | NCI/ADR-RES > 100 µM | SF-268 > 100 µM | NCI-H23 > 100 µM | UACC-62 > 100 µM | A549 > 100 µM | MDA-N > 100 µM | RPMI-8226 > 100 µM | HOP-62 > 100 µM

CC(C)[Si](Oc1cc2c3c(ccc2c(O)c1[C@@H](C)CO[Si](C)(C)C(C)(C)C)C(C)(C)CCC3)(C(C)C)C(C)C
> 100 µM: HCT-15
inactive: M14 > 100 µM | OVCAR-4 > 100 µM | KM12 > 100 µM | SNB-75 69.8 µM | HOP-92 > 100 µM | OVCAR-5 > 100 µM | SK-MEL-2 > 100 µM | SNB-19 > 100 µM | MCF7 > 100 µM | Malme-3M 22.6 µM | A498 > 100 µM | COLO 205 > 100 µM | MDA-MB-231 > 100 µM | Hs-578T > 100 µM | ACHN > 100 µM | SF-539 > 100 µM | HT-29 > 100 µM | HCT-116 > 100 µM | K562 43.7 µM | CCRF-CEM 43.4 µM | SF-295 92.3 µM | TK-10 > 100 µM | NCI-H522 39.5 µM | 786-0 > 100 µM | PC-3 74.6 µM | SK-OV-3 > 100 µM | NCI-H460 78 µM | LOX IMVI 64.4 µM | HL-60 17.6 µM | NCI-H226 > 100 µM | NCI/ADR-RES > 100 µM | SK-MEL-28 > 100 µM | OVCAR-8 > 100 µM | MDA-MB-435 > 100 µM | EKVX > 100 µM | DU-145 > 100 µM | SF-268 > 100 µM | RXF 393 > 100 µM | NCI-H23 > 100 µM | UACC-62 > 100 µM | UO-31 > 100 µM | CAKI-1 > 100 µM | A549 > 100 µM | SK-MEL-5 23.8 µM | OVCAR-3 86.1 µM | UACC-257 29.4 µM | SW-620 > 100 µM | IGROV-1 87.5 µM | U-251 > 100 µM | SR 51.5 µM | MDA-N > 100 µM | RPMI-8226 49.8 µM | MOLT-4 29.9 µM | SN12C > 100 µM | HOP-62 > 100 µM

O=c1[nH]n(Cc2ccccc2)c2ccc([N+](=O)[O-])cc12
inactive: M14 46.2 µM | OVCAR-4 > 100 µM | KM12 64.4 µM | HOP-92 55.8 µM | OVCAR-5 > 100 µM | SK-MEL-2 47.8 µM | SNB-19 > 100 µM | MCF7 28.2 µM | Malme-3M 44.5 µM | A498 47.3 µM | COLO 205 > 100 µM | MDA-MB-231 28.7 µM | Hs-578T 35.2 µM | ACHN > 100 µM | SF-539 87.1 µM | HT-29 41.2 µM | HCT-116 49.4 µM | K562 28.8 µM | CCRF-CEM 55.2 µM | SF-295 66.8 µM | TK-10 > 100 µM | NCI-H522 65.5 µM | 786-0 82.4 µM | PC-3 37.2 µM | SK-OV-3 15.7 µM | NCI-H460 40.6 µM | LOX IMVI 88.7 µM | HL-60 33.8 µM | NCI-H226 > 100 µM | NCI/ADR-RES 34.8 µM | SK-MEL-28 57.9 µM | OVCAR-8 > 100 µM | MDA-MB-435 19.9 µM | EKVX > 100 µM | DU-145 > 100 µM | SF-268 > 100 µM | RXF 393 71.9 µM | NCI-H23 56.5 µM | UACC-62 > 100 µM | HCC 2998 36.3 µM | UO-31 45.5 µM | CAKI-1 59.2 µM | A549 61 µM | SK-MEL-5 46.9 µM | OVCAR-3 > 100 µM | UACC-257 60.8 µM | SW-620 48.9 µM | IGROV-1 84.3 µM | U-251 49.8 µM | SR 69.7 µM | MDA-N 29.2 µM | RPMI-8226 48.5 µM | MOLT-4 34.7 µM | SN12C 49.5 µM | HOP-62 > 100 µM
56.1 µM: HCT-15

Source: ChEMBL document CHEMBL1201862, “PubChem BioAssay data set” (2004)
